Assay results reported in US11287433B2, “Methods for in vitro investigating mitochondrial replication dysfunction in a biological sample, kits and uses thereof, therapeutic methods against progeroid-like syndromes or symptoms and screening method for identifying particular protease inhibitor(s) and/or nitroso-redox stress scavenger …” (INSTITUT PASTEUR, priority 2014, dated 2022).
Peptide text beside a SMILES is read from it. * marks the point of attachment. Cbz = O=C(OCc1ccccc1)*

B1: KSTI: Kunitz soybean trypsin inhibitor, a natural serine protease inhibitor (protein)
chain: DFVLDNEGNPLENGGTYYILSDITAFGGIRAAPTGNERCPLTVVQSRNELDKGIGTIISSPYRIRFIAEGHPLSLKFDSFAVIMLCVGIPTEWSVVEDLPEGPAVKIGENKDAMDGWFRLERVSDDEFNNYKLVFCPQQAEDDKCGDIGISIDHDDGTRRLVVSKNKPLVVQFQKLDKESL

What was measured:
POLG1 levels [1] = experiment: POLG1 immunofluorescence in patient fibroblasts after treatment with protease inhibitors; format: cell-based, human; details: 5 hours
Protocol: (§1) Cells plated on slides were fixed with 2% PFA and permeabilized with 0.5% Triton X-100. The slides were incubated in blocking buffer (BSA 5% in PBS) for 1 h then with the primary antibody (POLγ and HTRA3 purchased from SantaCruz Biotechnology, or as available from any other provider) for 1 h at room temperature. A second, fluorescent antibody (goat anti-mouse and goat anti-rabbit Alexa® Fluor 488, Alexa® Fluor 555, conjugated secondary antibodies from Invitrogen or by any other provider), was incubated for 1-2 h at room temperature, and DNA was stained with 10 μg/ml Hoechst.
(§2) Image analysis was carried out using Perkin-Elmer Ultraview RS Nipkow-spinning disk confocal microscope. Three-dimensional reconstruction of all the z-stacks was achieved using the 3D-volume rendering of IMARIS software (Bitplane). A regular fluorescence microscope can also be used, including for fluorescence quantification, although in this last case it will quantify one section of the cell only and not the entire volume; this quantification may be sufficient for comparative studies (normal versus patient cells). Confocal acquisition (even in the absence of spinning disk) in 3D allows quantification of the entire volume, and differences among samples are therefore more robust.
The inventors treated fibroblasts from healthy individuals, from UV^SS and from Cockayne syndrome of type I and II (the last being the more severe), with protease inhibitors MG132 (5 μM) and KSTI (100 μg/ml) for 5 hours and then tested for POLG1 levels.

POLG1 levels [2] = experiment: POLG1 levels in CSB-silenced HeLa cells after protease inhibitors; format: cell-based, human
[3] = test system: adult primary fibroblasts IMR-90 and BJ; experiment: Cell survival of primary cells in culture at longer incubation times; format: cell-based
Protocol: As KSTI (serine protease inhibitor) and MnTBAP (ROS/RNS scavenger) rescue the CS phenotype by 24 h treatment, the inventors assessed cell survival in culture at longer incubation times with either drug. They used doses of the drugs as those affecting CS cells: 100 μg/ml of KSTI and 100 μM MnTBAP on adult primary fibroblasts IMR-90 and BJ (from ATCC repository). […] Additional experiments are ongoing to test the survival at longer incubation times and lower doses of the drug.

[4] = test system: reactive oxygen species (ROS); experiment: ROS levels by DCFHDA (DCF) fluorescence in fibroblasts; format: cell-based, human; details: control and UVSS fibroblasts; 24 h
From the text: The inventors assessed the relative levels of oxidative stress using the fluorescent probe dichlorofluorescein diacetate (DCFHDA), which prevalently detects reactive oxygen species (ROS)^29. They reported that whereas UV^SS cells display moderate (25%) increase of signal compared to controls, all CS cells are characterized by higher levels (1.6 to 2-fold) of oxidative stress (FIG. 8a), in agreement with a previous finding^30.
(§3) The inventors quantified fluorescence intensities on cells as summarized in Table 1 before and after treatment with MnTBAP (purchased from Millipore) of DCF and of DHR123 per cell (FIGS. 9(a) and (b)), as well as fluorescence intensities of HTRA2 (FIG. 9(c)), HTRA3 (FIG. 9(d)), POLG1 (FIG. 9(e)) per cell.
(§4) Manganase(III)tetrakis(4-benzoic acid)porphyrin (MNTBAP) is a synthetic metalloporphyrin which mimics superoxide dismutase and scavenges ROS and peroxynitrite^32.

peroxynitrite = experiment: Peroxynitrite levels by DHR123 fluorescence in fibroblasts; format: cell-based, human; details: all control and patient cells; 24 h
From the text: High levels of ROS react with nitric oxide (NO), thereby quenching NO and promoting the formation of peroxynitrite (ONOO^−), which is a powerful oxidant and nitration agent^31.
as §3, §4

HTRA2 = HTRA2 fluorescence intensity per cell after MnTBAP; format: cell-based, human
Protocol: as §1
as §2, with “robust. […]” for “robust.”

HTRA3 = HTRA3 fluorescence intensity per cell after MnTBAP; format: cell-based, human
Protocol: as §1, §2, §3

POLG1 = POLG1 fluorescence intensity per cell after MnTBAP; format: cell-based, human; details: normal fibroblasts
Protocol: as §1
as §2, with “robust. […]” for “robust.”

mtDNA content = experiment: qPCR of mtDNA content after MnTBAP; format: cell-based, human
ATP synthesis = experiment: ATP tests (glycolysis/OXPHOS fraction and total ATP per cell) after MnTBAP; format: cell-based, human
[5] = CS type I and type II fibroblasts 359, 797 and 816, MG132 5 μM or KSTI 100 μg/ml
[6] = CS type I fibroblasts 539 and 548, MG132 5 μM or KSTI 100 μg/ml
[7] = fibroblasts of healthy individuals and of UVSS, MG132 5 μM or KSTI 100 μg/ml

| Molecule | POLG1 immunofluorescence level (POLG1 levels [1]; [5]) | POLG1 immunofluorescence level (POLG1 levels [1]; [6]) | POLG1 immunofluorescence level (POLG1 levels [1]; CS type II fibroblasts 177, MG132 5 μM) | POLG1 immunofluorescence level (POLG1 levels [1]; [7]) | POLG1 levels (POLG1 levels [2]) | cell survival (cell number and cell shape) ([3]; 100 μM MnTBAP, continuous treatment by 3 days) | levels of ROS, measured by DCFHDA [4] | levels of peroxynitrite, measured by DHR123 (peroxynitrite) | HTRA2 reduction (HTRA2; UVSS and all CS cells, compared with control cells) | levels of serine protease HTRA2 (HTRA2; control cells) | levels of HTRA3 (HTRA3; CS cells) | levels of HTRA3 (HTRA3; UVSS cells) | levels of HTRA3 (HTRA3; control cells) | levels of POLG1 (POLG1) | mtDNA content (mtDNA content; control fibroblasts) | mtDNA content (mtDNA content; patient cells) | glycolytic shift / fraction of ATP produced by mitochondria (ATP synthesis; CS cells, 24 h treatment) | total ATP levels (ATP synthesis; UVSS and CS cells) | cell survival (cell number and cell shape) ([3]; 100 μg/ml KSTI, continuous treatment by 6 days) |
| --- | --- | --- | --- | --- | --- | --- | --- | --- | --- | --- | --- | --- | --- | --- | --- | --- | --- | --- | --- |
| CC(C)C[C@@H](C=O)NC(=O)[C@H](CC(C)C)NC(=O)[C@H](CC(C)C)NC(=O)OCc1ccccc1 [MG132, benzyl N-[(2S)-4-methyl-1-[[(2S)-4-methyl-1-[[(2S)-4-methyl-1-oxopentan-2-yl]amino]-1-oxopentan-2-yl]amino]-1-oxopentan-2-yl]carbamate] (Cbz-Leu-Leu-Leu-aldehyde) | POLG1 levels exceeded those of untreated healthy individuals | Significant modifications in two CS type I fibroblasts (539 and 548) were not observed | increased to levels of healthy individual | increased levels of POLG1 immunofluorescence | restored normal POLG1 levels |  |  |  |  |  |  |  |  |  |  |  |  |  |  |
| O=C(O)c1ccc(/C2=C3\C=CC(=N3)/C(c3ccc(C(=O)O)cc3)=c3/cc/c4[n]3[Mn]([Cl])[n]3c2ccc3/C(c2ccc(C(=O)O)cc2)=C2/C=CC(=N2)\C=4c2ccc(C(=O)O)cc2)cc1 [MnTBAP, Manganese (III) tetrakis (4-benzoic acid) porphyrin chloride] |  |  |  |  |  | did not show effect on cell survival | decreased by two thirds | greatly reduced | dramatically higher | reduce by one half | restored control levels of HTRA3 | did reduce | increased the levels of HTRA3 | increased levels of POLG1 | does not change the mtDNA content | becomes close to the value of controls | attenuated | remain relatively high |  |
| B1 | POLG1 levels exceeded those of untreated healthy individuals | Significant modifications in two CS type I fibroblasts (539 and 548) were not observed |  | increased levels of POLG1 immunofluorescence | restored normal POLG1 levels |  |  |  |  |  |  |  |  |  |  |  |  |  | did not show effect on cell survival |
